This is an account of results in patent US20080064726A1, “Pyrrolidine Derivatives” (priority 2004, published 2008).

Like-named read-outs stand apart in the source and are kept apart here.

The target in data set [1] is T1, DPP-IV purified from pig kidney (Sus scrofa, UniProt P22411).
T1 construct: DPP-rIV purified from pig kidney (Sigma); purchased Sigma; host or cells: pig kidney tissue
Description: Test for determination of DPP-IV inhibitory activity (Gly-Pro-AMC fluorescence). The class given is biochemical. As to conditions: room temperature, 60 minutes, 0.05 mM Gly-Pro-AMC. As for the experimental part:
Procedure of DPP-IV activity measurement is as follows. The reaction was performed in a 96-well plate.
Reaction solutions (100 μl/well) obtained by adding a test substance at various concentrations to a solution containing 50 mM of Tris HCl, 150 mM of sodium chloride, a 0.1% triton X-100, 0.3 mU/mI of DPP-rIV purified from pig kidney (Sigma), and 0.05 mM of Gly-Pro-AMC (Bachem) were incubated at a room temperature for 60 minutes, and then fluorescence intensities (Excitation: 355 nm, Emission: 460 nm) of the reaction solutions were measured (ARVO, Perkin Elmer). The data of 3 Wells under the same conditions were averaged.
The inhibition in the test group, relative to the solvent-added group was calculated, and the IC50 value thereof was obtained through logistic analysis.

Another data set is described as follows: PK test in rats. Type of data set: in vivo. The note with it: for BA, compound measured = compound tested / AUC(0-inf): male SD rats; for BA, compound measured = compound tested: oral 3 mg/kg vs intravenous 1 mg/kg; for AUC(0-inf): rat, oral 3 mg/kg, plasma, read-out: AUC0→∞, compound measured = compound tested. As for the experimental part:
Each three animals were used for each point. Plasma was collected from the blood obtained by such a blood collection and concentration of the compound in plasma was measured using LC/MS/MS (2695, Waters and TSQ Quantum, ThermoFinnigan).
On the basis of concentration of the compound in the plasma determined by the measurement, an area under curve (AUC) of the drug concentration in plasma vs. time was calculated and, from the ratio of AUC by oral administration to AUC by intravenous injection, bioavailability (BA) was calculated. With regard to the BA value by administration of the compound of the present invention, each of concentrations in plasma of the compound X and the compound of the present invention was calculated.

A short description of data set [2]: PK test in cynomolgus monkey. The class given is in vivo. As to conditions: male cynomolgus monkeys; for BA, compound measured = compound tested: oral 3 mg/kg vs intravenous 1 mg/kg, monohydrochloride. Here is the method: Male cynomolgus monkeys of four year old (K. K. Cary; the country of origin: Vietnam) were fasted for 16 hours before administration (feed was given after 4 hours from administration), a test compound dissolved in distilled water was orally administered at a dose of 3 mg/kg and blood was collected from forearm cephalic vein after 0.25, 0.5, 1, 2, 4, 8 and 24 hours from administration of the compound. In addition, cynomolgus monkeys to which no drug was administered for 7 days after the oral administration were fasted during 16 hours before administration (feed was given after 4 hours from administration), a test compound dissolved in distilled water was administered at the dose of 1 mg/kg from forearm cephalic vein and blood was collected from the forearm cephalic vein after 0.1, 0.25, 0.5, 1, 2, 4, 8 and 24 hours from administration of the compound. For each of the administrations, three animals were used. Plasma was collected by centrifugal separation of the blood obtained by such a blood collection and concentration of the compound in the plasma was measured by LC/MS/MS (2695, Waters and TSQ Quantum, ThermoFinnigan).

For another data set, the target named is T2, plasma DPP-IV activity (Mus musculus, UniProt P28843).
T2 construct: from tissue; host or cells: plasma of male ICR mice after oral dosing
Description: Test for DPP-IV inhibiting activity duration in mice (plasma DPP-IV activity after oral administration). The class given is in vivo. As to conditions: male ICR mice, 10 mg/kg oral. As for the experimental part: Male ICR mice (Nippon SLC) were grouped into a test group and a control group of 5 subjects each. A test compound (10 mg/kg) was dissolved in purified water, and orally administered. Purified water alone was orally administered to the mice of the control group. One half and 12 hours after the administration, the blood was collected from each mouse through the orbital venous plexus thereof. The collected blood was immediately centrifuged to isolate the plasma, and the DPP-IV activity of the plasma was measured.
The process of plasma DPP-IV activity determination was as follows: The reaction was performed in a 96-well plate. 5 μl of the collected plasma was added to an aqueous solution (95 μl/well) comprises 25 mM Tris-HCl, 140 mM sodium chloride, 10 mM potassium-chloride, 1% bovine serum albumin, and 0.01 mM Gly-Pro-AMC (Bachem), and incubated at room temperature for 20 minutes. The fluorescence intensity (excitation 355 nm/emission 460 nm) of each well was measured (ARVO, Perkin Elmer).
The fluorescent intensity of the well, to which was added the plasma collected from the control group, was 100%. Based on it, the DPP-IV activity of the plasma collected from the test compound administered mice was calculated, and the activity difference between the control group and the test group was obtained. This indicated the inhibition in the test group.

The mark [3] stands for this setting: 0.5 hour, read-out: Inhibitory Rate after 0.5 Hour from Administration.
Where [4] appears, read: 12 hours, read-out: Inhibitory Rate after 12 Hours from Administration.

T2 sequence (P28843 38-760 limits assumed): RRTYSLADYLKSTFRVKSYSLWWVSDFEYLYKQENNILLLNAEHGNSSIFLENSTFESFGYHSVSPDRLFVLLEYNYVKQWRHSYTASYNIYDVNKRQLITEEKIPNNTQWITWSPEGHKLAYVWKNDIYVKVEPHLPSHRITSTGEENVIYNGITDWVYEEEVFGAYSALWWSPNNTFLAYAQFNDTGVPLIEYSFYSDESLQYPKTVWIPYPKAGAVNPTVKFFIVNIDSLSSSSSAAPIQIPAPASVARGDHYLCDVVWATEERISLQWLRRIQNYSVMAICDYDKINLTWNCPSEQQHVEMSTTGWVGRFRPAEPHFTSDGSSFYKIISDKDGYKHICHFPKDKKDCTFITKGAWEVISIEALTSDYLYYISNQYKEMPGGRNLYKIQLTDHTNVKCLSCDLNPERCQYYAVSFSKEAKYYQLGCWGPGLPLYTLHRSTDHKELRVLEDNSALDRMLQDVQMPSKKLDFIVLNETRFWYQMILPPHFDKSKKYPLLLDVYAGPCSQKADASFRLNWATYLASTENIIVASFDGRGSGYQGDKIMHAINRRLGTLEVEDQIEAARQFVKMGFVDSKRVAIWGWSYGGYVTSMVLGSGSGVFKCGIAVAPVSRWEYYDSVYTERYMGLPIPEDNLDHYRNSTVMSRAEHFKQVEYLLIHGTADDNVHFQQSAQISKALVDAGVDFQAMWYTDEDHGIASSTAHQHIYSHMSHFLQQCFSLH
T1 sequence (P22411 whole entry): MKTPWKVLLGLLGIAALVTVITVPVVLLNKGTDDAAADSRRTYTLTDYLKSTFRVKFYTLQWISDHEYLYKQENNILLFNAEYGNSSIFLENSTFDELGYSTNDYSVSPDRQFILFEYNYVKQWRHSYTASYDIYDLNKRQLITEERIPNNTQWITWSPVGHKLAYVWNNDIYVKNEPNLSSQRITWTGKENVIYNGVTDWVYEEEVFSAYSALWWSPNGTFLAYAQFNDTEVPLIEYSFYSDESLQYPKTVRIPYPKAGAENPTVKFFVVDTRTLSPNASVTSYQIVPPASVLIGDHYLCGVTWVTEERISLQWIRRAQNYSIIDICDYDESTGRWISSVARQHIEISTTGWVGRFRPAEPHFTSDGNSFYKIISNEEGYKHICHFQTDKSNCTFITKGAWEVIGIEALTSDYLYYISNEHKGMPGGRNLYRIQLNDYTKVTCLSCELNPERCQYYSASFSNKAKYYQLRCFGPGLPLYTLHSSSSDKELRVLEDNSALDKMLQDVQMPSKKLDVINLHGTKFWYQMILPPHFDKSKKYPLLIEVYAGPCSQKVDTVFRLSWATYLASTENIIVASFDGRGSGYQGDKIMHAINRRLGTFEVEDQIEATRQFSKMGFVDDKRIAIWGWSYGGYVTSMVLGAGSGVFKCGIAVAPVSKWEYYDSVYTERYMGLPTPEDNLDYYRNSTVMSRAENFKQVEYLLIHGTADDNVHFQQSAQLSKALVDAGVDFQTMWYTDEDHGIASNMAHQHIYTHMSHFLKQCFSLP

What is called IC50 is the point on the concentration scale where inhibition reaches its midpoint. Take `CC1(NCC(=O)N2C[C@@H](F)C[C@H]2C#N)CCN(C(=O)CO)CC1.Cl` [Compound X, (2S,4S)-4-fluoro-1-{[(1-glycoloyl-4-methylpiperidin-4-yl)amino]acetyl}pyrrolidine-2-carbonitrile monohydrochloride]: in data set [1], half-maximal inhibition (IC50) required 0.015 µM. Moreover, the “BA, compound measured = compound tested” value in the data set “PK test in rats” came to 16%; in data set [2] (listed as compound X), 13%; in data set [2], 13 ± 5%. The AUC(0-inf) was 0.138 µg·h/mL in “PK test in rats” and 0.278 ± 0.104 µg·h/mL in data set [2] (cynomolgus monkey, oral 3 mg/kg, plasma, read-out: AUC0→∞, compound measured = compound tested).
On to `COCC(=O)N1CCC(NCC(=O)N2CCC[C@H]2C#N)CC1` [Compound Y], for which the inhibition at 10 mg/kg on plasma DPP-IV activity (setting [3]) was determined as 90%; at plasma DPP-IV activity (setting [4]), 33%.
The compound `CC(=O)OCC(=O)N1CCC(C)(NCC(=O)N2C[C@@H](F)C[C@H]2C#N)CC1` [Example 1, 2-[4-({2-[(2S,4S)-2-cyano-4-fluoropyrrolidin-1-yl]-2-oxoethyl}amino)-4-methylpiperdin-1-yl]-2-oxoethyl acetate monofumarate] displayed an IC50 in data set [1] of 0.015 µM. The inhibition at 10 mg/kg at plasma DPP-IV activity (setting [3]) amounted to 95%. Moreover, the inhibition at 10 mg/kg on plasma DPP-IV activity (setting [4]) came out at 84%. Further, in “PK test in rats”, the “BA, compound measured = compound tested” value was found to be 77% and the AUC(0-inf) stood at 0.043 µg·h/mL. The “Increase of AUC (sum of tested compound and compound X in plasma) compared with AUC when compound X was administered” value in the data set “PK test in rats” (rats, oral administration) was “about fourfold”. Further, in data set [2] (oral 3 mg/kg, plasma), the “AUC0→∞, compound measured = compound tested” value is on record as “not detected”.
